# Results: patent US9326513B2, “Fungicidal compositions” (Syngenta Participations AG, priority 2011, dated 2016)
# Like-named read-outs stand apart in the source and are kept apart here.
# What was measured:
# [1] = system: Puccinia recondita f. sp. tritici; assay: Puccinia recondita f. sp. tritici / wheat / leaf disc preventative (brown rust); assay type: in vivo; details: foliar, compared to untreated control leaf disks, read-out: disease control
# Text: Puccinia recondita f. sp. tritici/Wheat/Leaf Disc Preventative (Brown Rust) Wheat leaf segments cv. Kanzler were placed on agar in multiwell plates (24-well format) and sprayed with the formulated test compound diluted in water. The leaf disks were inoculated with a spore suspension of the fungus 1 day after application.
# [2] = system: Puccinia recondita f. sp. tritici; assay: Puccinia recondita f. sp. tritici / wheat / leaf disc curative (brown rust); assay type: in vivo; details: foliar, compared to untreated control leaf disks, read-out: disease control
# Protocol: Puccinia recondita f. sp. tritici/Wheat/Leaf Disc Curative (Brown Rust) Wheat leaf segments cv. Kanzler are placed on agar in multiwell plates (24-well format). The leaf segments are inoculated with a spore suspension of the fungus. Plates were stored in darkness at 19° C. and 75% rh. The formulated test compound diluted in water was applied 1 day after inoculation.
# [3] = system: Blumeria graminis f. sp. tritici (Erysiphe graminis f. sp. tritici); assay: Blumeria graminis f. sp. tritici / wheat / leaf disc preventative (powdery mildew on wheat); assay type: in vivo; details: foliar, compared to untreated control leaf disks, read-out: disease control
# Summary of the method: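 Preventative leaf-disc test: compound (200 ppm) was sprayed onto cv. Kanzler wheat segments, which were dusted with conidia from infected plants 1 day after application. After incubation at 20° C and 60% rh, disease control relative to untreated segments was rated 6-8 days after application.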
# [4] = system: Pyrenophora teres; assay: Pyrenophora teres / barley / leaf disc preventative (net blotch); assay type: in vivo; details: foliar, compared to untreated control leaf disks, read-out: disease control
# Text: Pyrenophora teres/Barley/Leaf Disc Preventative (Net Blotch) Barley leaf segments cv. Hasso were placed on agar in a multiwell plate (24-well format) and sprayed with the formulated test compound diluted in water. The leaf segments were inoculated with a spore suspension of the fungus 2 days after application.
# [5] = system: Mycosphaerella arachidis (y. Cercospora arachidicola); assay: Mycosphaerella arachidis (brown leaf spot of groundnut), PDB microtiter plate, visual after 5-6 days; assay type: cell-based
# [6] = system: Monographella nivalis (syn. Microdochium nivale, Fusarium nivale); assay: Monographella nivalis (snow mould, foot rot of cereals), PDB microtiter plate, visual after 72 hrs; assay type: cell-based; details: Monographella nivalis, applied alone
# [7] = system: Botrytis cinerea; assay: Botrytis cinerea (gray mould), PDB microtiter plate, visual after 72 hrs; assay type: cell-based; details: for inhibition at 0.125 ppm: rate 0.125 ppm; for inhibition at 0.25 ppm: rate 0.25 ppm; for inhibition at 0.5 ppm: rate 0.5 ppm
# [8] = system: Septoria tritici; assay: Septoria tritici (leaf blotch), YBG microtiter plate, photometric growth inhibition after 6 days; assay type: cell-based; details: Zymoseptoria tritici, 144 h
# Text: In the following Tables ‘Activity (%)’ means the assessed experimental activity (% disease control in this test when compared to untreated control leaf disks under the same conditions, which show extensive disease development) and “P” is the expected value calculated (expected) activity according to the COLBY formula (see above). The column headed ‘S?’ indicates whether or not synergy was observed, with ‘y’ meaning that synergy was observed.
# Septoria tritici (Leaf Blotch):
# After placing solutions of the test compounds (containing 0.2% DMSO) into a microtiter plate (96-well format), an equal amount of the nutrient broth (YBG) was added to each of the well. Finally the fungal spore solution was added. The test plates were incubated at 20° C. The inhibition of growth was determined photometrically after 6 days and the activity calculated in relation to untreated control.
# [9] = system: Septoria tritici; assay: Septoria tritici (leaf blotch), PDB microtiter plate, visual after 72 hrs; assay type: cell-based; details: Zymoseptoria tritici
# [10] = system: Septoria tritici; assay: Septoria tritici on wheat, preventive treatment; assay type: in vivo; details: solo, wheat Riband, 1 day preventive, 18 days after application
# [11] = Mycosphaerella arachidis, single compound, 0.00390625 ppm, read-out: Activity (%)
# [12] = Mycosphaerella arachidis, single compound, 0.0078125 ppm, read-out: Activity (%)
# [13] = Mycosphaerella arachidis, single compound, 0.015625 ppm, read-out: Activity (%)
# [14] = Mycosphaerella arachidis, single compound, 0.03125 ppm, read-out: Activity (%)
# [15] = Mycosphaerella arachidis, single compound, 0.0625 ppm, read-out: Activity (%)
# [16] = Botrytis cinerea, single compound
compound,measurement,setting,value
C#Cc1cccc(COc2nc(C)c(/N=C/N(C)CC)cc2Br)c1 [Q.195],pest or weed control at 200 ppm,[1],≥ 50%
same,pest or weed control at 200 ppm,[2],≥ 50%
same,pest or weed control at 200 ppm,[3],≥ 50%
same,melting point,,52 to 54 °C
same,pest or weed control at 200 ppm,[4],≥ 50%
CCN(C)/C=N/c1cc(Br)c(OCc2cc(C)cc(C)c2)nc1C [Q.207],pest or weed control at 200 ppm,[1],≥ 50%
same,pest or weed control at 200 ppm,[2],≥ 50%
same,pest or weed control at 200 ppm,[3],≥ 50%
same,melting point,,57 to 58 °C
same,pest or weed control at 200 ppm,[4],≥ 50%
CCN(C)/C=N/c1cc(Br)c(OC(C)c2ccccc2-c2ccccc2)nc1C (stereo not drawn) [Q.295],pest or weed control at 200 ppm,[1],≥ 50%
same,melting point,,59 to 62 °C
CC(Cc1ccc(C(C)(C)C)cc1)CN1C[C@@H](C)O[C@@H](C)C1 (stereo partly drawn) [Fenpropimorph],inhibition at 0.00390625 ppm,[5]; [11],20%
same,inhibition at 0.0078125 ppm,[5]; [12],20%
same,inhibition at 0.015625 ppm,[5]; [13],50%
same,inhibition at 0.03125 ppm,[5]; [14],50%
same,inhibition at 0.0625 ppm,[5]; [15],70%
same,inhibition at 0.0625 ppm,[6]; 0.0625 ppm,0%
same,inhibition at 0.125 ppm,[6]; 0.125 ppm,0%
same,inhibition at 0.25 ppm,[6]; 0.25 ppm,0%
same,inhibition at 0.5 ppm,[6]; 0.5 ppm,0%
same,inhibition at 2 ppm,[6]; 2 ppm,20%
same,inhibition at 0.0078125 ppm,[6]; rate 0.0078125 ppm,0%
same,inhibition at 0.015625 ppm,[6]; rate 0.015625 ppm,0%
same,inhibition at 0.03125 ppm,[6]; rate 0.03125 ppm,0%
same,inhibition at 0.0625 ppm,[6]; rate 0.0625 ppm,0%
same,inhibition at 0.125 ppm,[6]; rate 0.125 ppm,0%
same,inhibition at 0.0625 ppm,"[7]; Botrytis cinerea, alone, rate 0.0625 ppm, read-out: Activity (%)",0%
same,inhibition at 0.125 ppm,"[7]; Botrytis cinerea, alone",0%
same,inhibition at 0.25 ppm,"[7]; Botrytis cinerea, alone",0%
same,inhibition at 0.5 ppm,"[7]; Botrytis cinerea, alone",70%
same,inhibition at 0.125 ppm,[7]; [16],0%
same,inhibition at 0.25 ppm,[7]; [16],0%
same,inhibition at 0.5 ppm,[7]; [16],70%
CCCN(CCOc1c(Cl)cc(Cl)cc1Cl)C(=O)n1ccnc1 [Prochloraz],inhibition of growth at 0.015625 ppm,[8]; read-out: Activity,48%
same,inhibition of growth at 0.03125 ppm,[8]; read-out: Activity,80%
CCN(C)/C=N/c1cc(Br)c(OCc2ccnc(Cl)c2)nc1C [Q.111],pest or weed control at 200 ppm,[1],≥ 50%
same,pest or weed control at 200 ppm,[2],≥ 50%
same,pest or weed control at 200 ppm,[3],≥ 50%
same,melting point,,57 to 59 °C
same,pest or weed control at 200 ppm,[4],≥ 50%
CCN(C)/C=N/c1cc(Br)c(OCc2cccc(F)c2C)nc1C [Q.322],pest or weed control at 200 ppm,[1],≥ 50%
same,pest or weed control at 200 ppm,[2],≥ 50%
same,pest or weed control at 200 ppm,[3],≥ 50%
same,melting point,,67 to 68 °C
same,pest or weed control at 200 ppm,[4],≥ 50%
CCN(C)/C=N/c1cc(Br)c(OC2CCCc3ccc(-c4cccc(F)c4)cc32)nc1C (stereo not drawn) [Q.137],pest or weed control at 200 ppm,[1],≥ 50%
same,melting point,,43 to 45 °C
CCN(C)/C=N/c1cc(Br)c(OCCc2ccc(F)cc2)nc1C [Q.129],pest or weed control at 200 ppm,[1],≥ 50%
same,pest or weed control at 200 ppm,[2],≥ 50%
same,pest or weed control at 200 ppm,[3],≥ 50%
same,melting point,,46 to 48 °C
same,pest or weed control at 200 ppm,[4],≥ 50%
CC(C)(C)C(O)(CCc1ccc(Cl)cc1)Cn1cncn1 (stereo not drawn) [Tebuconazole],inhibition of growth at 1.25 ppm,"[8]; solo, rate 1.25 ppm",0%
same,inhibition of growth at 2.5 ppm,"[8]; solo, rate 2.5 ppm",47%
same,inhibition of growth at 5 ppm,"[8]; solo, rate 5 ppm",73%
CCN(C)/C=N/c1cc(Br)c(OCc2cccc(C(F)(F)F)c2)nc1C [Q.153],pest or weed control at 200 ppm,[1],≥ 50%
same,pest or weed control at 200 ppm,[2],≥ 50%
same,pest or weed control at 200 ppm,[3],≥ 50%
same,melting point,,43 to 44 °C
same,pest or weed control at 200 ppm,[4],≥ 50%
CCN(C)/C=N/c1cc(Br)c(OCc2c(C)cccc2C)nc1C [Q.325],pest or weed control at 200 ppm,[1],≥ 50%
same,pest or weed control at 200 ppm,[2],≥ 50%
same,pest or weed control at 200 ppm,[3],≥ 50%
same,melting point,,56 to 57 °C
O=[N+]([O-])c1cc(C(F)(F)F)c(Cl)c([N+](=O)[O-])c1Nc1ncc(C(F)(F)F)cc1Cl [Fluazinam],inhibition at 0.015625 ppm,"[9]; single compound, 0.015625 ppm",0%
same,inhibition at 0.03125 ppm,"[9]; single compound, 0.03125 ppm",20%
same,inhibition at 0.0625 ppm,"[9]; single compound, 0.0625 ppm",70%
same,inhibition at 0.00390625 ppm,[5]; [11],0%
same,inhibition at 0.0078125 ppm,[5]; [12],0%
same,inhibition at 0.015625 ppm,[5]; [13],0%
same,inhibition at 0.03125 ppm,[5]; [14],0%
same,inhibition at 0.0625 ppm,[5]; [15],20%
N#Cc1c[nH]cc1-c1cccc2c1OC(F)(F)O2 [Fludioxonil],inhibition at 0.25 ppm,[9]; read-out: Activity (%),70%
same,inhibition at 0.00390625 ppm,"[5]; Mycosphaerella arachidis, read-out: Activity (%), single compound, 0.00390625 ppm",0%
same,inhibition at 0.0078125 ppm,"[5]; Mycosphaerella arachidis, read-out: Activity (%), single compound, 0.0078125 ppm",0%
same,inhibition at 0.015625 ppm,"[5]; Mycosphaerella arachidis, read-out: Activity (%), single compound, 0.015625 ppm",0%
same,inhibition at 0.03125 ppm,"[5]; Mycosphaerella arachidis, read-out: Activity (%), single compound, 0.03125 ppm",0%
same,inhibition at 0.0625 ppm,"[5]; Mycosphaerella arachidis, read-out: Activity (%), single compound, 0.0625 ppm",0%
same,inhibition at 0.125 ppm,"[5]; Mycosphaerella arachidis, read-out: Activity (%), single compound, 0.125 ppm",0%
same,inhibition at 0.25 ppm,"[5]; Mycosphaerella arachidis, read-out: Activity (%), single compound, 0.25 ppm",0%
same,inhibition at 0.5 ppm,"[5]; Mycosphaerella arachidis, read-out: Activity (%), single compound, 0.5 ppm",70%
same,Activity (%),"[5]; single compound, 0.5 ppm",50%
same,inhibition at 0.03125 ppm,"[7]; Botrytis cinerea, read-out: Activity (%), alone, rate 0.03125 ppm",0%
same,inhibition at 0.0625 ppm,"[7]; Botrytis cinerea, read-out: Activity (%), alone, rate 0.0625 ppm",70%
same,Activity (%),"[7]; alone, rate 0.0625 ppm",50%
"OC(c1cccnc1)c1c(-c2ccc(Cl)cc2F)noc1-c1ccc(F)cc1F (stereo not drawn) [(VII), [3-(4-chloro-2-fluoro-phenyl)-5-(2,4-difluoro-phenyl)-isoxazol-4-yl]-pyridin-3-yl-methanol, reference compound]",Activity,[10]; 3 g a.i./ha,0%
same,Activity,[10]; 9 g a.i./ha,20%
same,Activity,[10]; 27 g a.i./ha,96%
Fc1ccc([C@]2(Cn3cncn3)O[C@H]2c2ccccc2Cl)cc1 (racemic) [Epoxiconazole],inhibition of growth at 0.15625 ppm,"[8]; solo, rate 0.15625 ppm, read-out: Activity",65%
same,inhibition of growth at 0.625 ppm,"[8]; solo, rate 0.625 ppm",71%
CC1COC(Cn2cncn2)(c2ccc(Oc3ccc(Cl)cc3)cc2Cl)O1 (stereo not drawn) [Difenoconazole],Activity,[10]; 0.33 g a.i./ha,0%
same,Activity,[10]; 1 g a.i./ha,0%
same,Activity,[10]; 3 g a.i./ha,0%
same,Activity,[10]; 9 g a.i./ha,3%
same,Activity,[10]; 27 g a.i./ha,5%
same,inhibition of growth at 0.15625 ppm,[8]; read-out: Activity,48%
CCN(C)/C=N/c1cc(Br)c(OCCc2cc(C)cc(C)c2)nc1C [Q.422],melting point,,61 to 63 °C
Cc1cc(C2CC2)nc(Nc2ccccc2)n1 [Cyprodinil],inhibition at 0.00078125 ppm,"[5]; Mycosphaerella arachidis, single compound, 0.00078125 ppm",0%
same,inhibition at 0.00125 ppm,"[5]; Mycosphaerella arachidis, single compound, 0.00125 ppm",0%
same,inhibition at 0.0015625 ppm,"[5]; Mycosphaerella arachidis, single compound, 0.0015625 ppm",0%
same,inhibition at 0.003125 ppm,"[5]; Mycosphaerella arachidis, single compound, 0.003125 ppm",0%
same,inhibition at 0.025 ppm,"[5]; Mycosphaerella arachidis, single compound, 0.025 ppm",0%
same,inhibition at 0.05 ppm,"[5]; Mycosphaerella arachidis, single compound, 0.05 ppm",0%
same,inhibition at 0.0625 ppm,[5]; [15],0%
same,inhibition at 0.1 ppm,"[5]; Mycosphaerella arachidis, single compound, 0.1 ppm",0%
same,inhibition at 0.2 ppm,"[5]; Mycosphaerella arachidis, single compound, 0.2 ppm",0%
same,inhibition at 0.0015625 ppm,[6]; 0.0015625 ppm,0%
same,inhibition at 0.003125 ppm,[6]; 0.003125 ppm,20%
CCN(C)/C=N/c1cc(Br)c(OCc2cccc(NC(=O)OC(C)(C)C)c2)nc1C [Q.236],pest or weed control at 200 ppm,[1],≥ 50%
same,pest or weed control at 200 ppm,[2],≥ 50%
same,melting point,,40 to 42 °C
same,pest or weed control at 200 ppm,[4],≥ 50%
CCN(C)/C=N/c1cc(Br)c(OCc2ccccc2Cl)nc1C [Q.300],pest or weed control at 200 ppm,[1],≥ 50%
same,pest or weed control at 200 ppm,[2],≥ 50%
same,pest or weed control at 200 ppm,[3],≥ 50%
same,melting point,,53 to 56 °C
